Broadly, the IC50 is the concentration that gives 50% inhibition.

For one assay, the target named is T1, JAK1 (Homo sapiens, UniProt P23458).
T1 construct: purchased Thermo Fisher Scientific (SelectScreen service)
As to the kind of experiment: JAK1 enzyme activity assay (Thermo Fisher Selectscreen, Z-lyte). Format: biochemical. To be noted: read-out: JAK1 Inhibition IC50. As to the method: (§1) The inhibitory potency of candidate compounds of JAK1, JAK2, and Tyk-2 was done at Thermo Fisher Scientific in their Selectscreen using a Z-lyte assay. Following are the assay details for each enzyme.
JAK1: The 2×JAK-enzyme/Tyr 06 mixture is prepared in 50 mM HEPES pH 6.5, 0.01% BRIJ-35, 10 mM MgCl2, 1 mM EGTA, 0.02% NaN3. The final 10 μL of the Kinase Reaction consists of 21.2-91.5 ng JAK1 and 2 μM Tyr 06 in 50 mM HEPES pH 7.0, 0.01% BRIJ-35, 10 mM MgCl2, 1 mM EGTA, 0.01% NaN3. After the one hour Kinase Reaction incubation, 5 μL of a 1:128 dilution of Development Reagent is added.
(§2) Data reduction for JAK1, JAK2 and TYK2 is done the same, independent of the enzyme run. In summary, background signal is defined in the absence of enzyme and uninhibited signal is defined in the presence of vehicle (2% DMSO) alone. Compounds were evaluated in an 11 point dose-response ranging from […] to 0.34 nM. IC50 values of compounds are determined using a 4 parameter logistical fit of emission ratio as a function of the concentration of compound.

A further assay concerns the target T2, Tyk-2 (Homo sapiens, UniProt P29597).
T2 construct: purchased Thermo Fisher Scientific (SelectScreen service)
As to the kind of experiment: Tyk-2 enzyme activity assay (Thermo Fisher Selectscreen, Z-lyte). Format: biochemical. To be noted: read-out: Tyk-2 Inhibition IC50. The procedure: as §1
TYK2: The 2×TYK2/Tyr 03 mixture is prepared in 50 mM HEPES pH 6.5, 0.01% BRIJ-35, 10 mM MgCl2, 1 mM EGTA, 0.02% NaN3. The final 10 μL Kinase Reaction consists of 3.75-15 ng TYK2 and 2 μM Tyr 03 in 50 mM HEPES pH 7.0, 0.01% BRIJ-35, 10 mM MgCl2, 1 mM EGTA, 0.01% NaN3. After the one hour KinaseReaction incubation, 5 μL of a 1:4096 dilution of Development Reagent A is added.
as §2

For assay [1], the system named is IL-2 stimulated STAT5 phosphorylation on Tyr694 (JAK1/3). As to the kind of experiment: JAK1/3 cellular target modulation: IL-2 stimulated phospho-STAT5 in human PBMC. In kind it is cell-based. To be noted: IL-2 25 ng/ml, read-out: IL2-STAT5 IC50. The source says: (§3) Target modulation was based upon the ability of a compound to inhibit JAK isoform specific phosphorylation of selected substrates. IL-2 stimulated STAT5 phosphorylation on Tyr694 was used to assess JAK1/3 compound selectivity. GM-CSF stimulated STAT5 phosphorylation on Tyr694 was used to assess JAK2 compound selectivity. IFNγ stimulated STAT1 phosphorylation on Tyr701 was used to assess JAK1/2 compound selectivity. IL-12 stimulated STAT4 phosphorylation on Tyr693 was used to assess JAK2/TYK2 compound selectivity. For all four assays, human PBMC from frozen stocks were thawed, pelleted, resuspended in complete media (90% RPMI, 10% heat inactivated FBS, 10 mM HEPES, 47 μM 2-ME, pen/strep) and placed in wells of a 96 well V-bottom plate at 200,000 per well in 120 μl complete media. Compounds were added as 15 μl per well of 10× working stock solutions in complete media with 1% DMSO (or medium with 1% DMSO for controls) and placed on a plate shaker in a 37° C. incubator with 5% CO2 for 1 hour with gentle shaking (setting of 3). Stimulation used the addition of soluble cytokines. For the JAK1/3 phospho-STAT5 assay, 15 μl of 10× working stock recombinant human IL-2 was added to a final concentration of 25 ng/ml. For the JAK2 phospho-STAT5 assay, 15 μl of 10× working stock recombinant human GM-CSF was added to a final concentration of 5 ng/ml. For the JAK1/2 phospho-STAT1 assay, 15 μl of 10× working stock of recombinant human IFNγ was added to a final concentration of 10 ng/ml. For the JAK2/TYK2 phospho-STAT4 assay, 15 μl of 10× working stock of recombinant human IL-12 was added to a final concentration of 1.7 ng/ml. Plates were then placed back on the plate shaker in the incubator for an additional 5, 5, 10, and 25 minutes respectively upon which the plates were removed from the incubator, sealed with a plate sealer and the cells pelleted at 400×g for 5 minutes. After pelleting, the media was removed by aspiration and the cells were lysed in assay specific cell lysis buffer. The levels of phospho-STAT5 were determined using a Phospho (Tyr694)STAT5a,b Whole Cell Lysate kit from Meso Scale Discovery. Levels of phospho-STAT1 were determined using a CST-PathScan Phospho-STAT1 (Tyr701) Sandwich ELISA kit. Levels of phospho-STAT4 were determined using a Phospho-STAT4 (Tyr693) Whole Cell Lysate kit from Meso Scale Discovery.

The target in the next assay is T3, JAK3 (a.a. 781-1124) (Homo sapiens, UniProt P52333).
T3 construct: JAK3 (a.a. 781-1124, ThermoFisher); purchased ThermoFisher
T3 sequence (P52333 781-1124): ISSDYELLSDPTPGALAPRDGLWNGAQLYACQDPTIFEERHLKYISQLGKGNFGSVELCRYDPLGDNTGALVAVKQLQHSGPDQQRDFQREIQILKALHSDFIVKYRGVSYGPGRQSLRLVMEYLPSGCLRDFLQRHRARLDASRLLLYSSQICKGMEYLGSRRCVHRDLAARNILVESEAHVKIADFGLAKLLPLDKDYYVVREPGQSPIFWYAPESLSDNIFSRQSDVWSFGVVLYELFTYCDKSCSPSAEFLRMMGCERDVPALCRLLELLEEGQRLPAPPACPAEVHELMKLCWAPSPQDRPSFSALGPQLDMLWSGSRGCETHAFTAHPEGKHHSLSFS
As to the kind of experiment: JAK3 enzyme activity assay (SRCtide phosphorylation, Caliper). Format: biochemical. As to conditions: 1 uM ATP; read-out: JAK3 Inhibition IC50. The procedure: The activity of JAK3 (a.a. 781-1124, ThermoFisher) was quantified by measuring the phosphorylation of SRCtide (FAM-GEEPLYWSFPAKKK-NH2). Kinase reactions were run in a 384-well Greiner plate with 2% final DMSO concentration under the buffer conditions of 20 mM HEPES, pH 7.5, 10 mM MgCl2, 0.01% BSA, and 0.0005% Tween-20. The kinase reaction components were 2.5 nM JAK3, 1 μM SRCtide peptide and 1 uM ATP. Examples were tested in dose-response starting at […] (11 concentrations, 3-fold serial dilution, duplicate reactions). The reactions were incubated at room temperature for 40 minutes, then stopped by adding a 1:1 volume of 30 mM EDTA in 20 mM HEPES, pH 7.5 (15 mM EDTA final). After the reaction was stopped, the phosphorylated and unphosphorylated peptides were separated and quantified using a Caliper LC3000/EZ-Reader system and HTS Well Analyzer Software (Caliper, A PerkinElmer Company, Hopkinton, Mass.). GraFit (Erithacus Software Ltd., Horley, U.K.) was used to calculate inhibitor potency by fitting dose-response data to the 4-parameter logistical IC50 equation.

Assay [2] deals with IFNγ stimulated STAT1 phosphorylation on Tyr701 (JAK1/2). As to the kind of experiment: JAK1/2 cellular target modulation: IFNγ stimulated phospho-STAT1 in human PBMC. In kind it is cell-based. To be noted: IFNγ 10 ng/ml, read-out: Infγ-STAT1 IC50.
Description: as §3

Assay [3] has as its system IL-12 stimulated STAT4 phosphorylation on Tyr693 (JAK2/TYK2). As to the kind of experiment: JAK2/TYK2 cellular target modulation: IL-12 stimulated phospho-STAT4 in human PBMC. Format: cell-based. To be noted: IL-12 1.7 ng/ml, read-out: IL12-STAT4 IC50.
Description: as §3

The next assay addresses T4, JAK2 (Homo sapiens, UniProt O60674).
T4 construct: purchased Thermo Fisher Scientific (SelectScreen service)
As to the kind of experiment: JAK2 enzyme activity assay (Thermo Fisher Selectscreen, Z-lyte). In kind it is biochemical. To be noted: read-out: JAK2 Inhibition IC50. As to the method: as §1
JAK2: The 2×JAK2/Tyr 06 mixture is prepared in 50 mM HEPES pH 7.5, 0.01% BRIJ-35, 10 mM MgCl2, 1 mM EGTA. The final 10 μL Kinase Reaction consists of 0.12-0.5 ng JAK2 and 2 μM Tyr 06 in 50 mM HEPES pH 7.5, 0.01% BRIJ-35, 10 mM MgCl2, 1 mM EGTA. After the one hour Kinase Reaction incubation, 5 μL of a 1:128 dilution of Development Reagent A is added.
as §2

T4 sequence (O60674 whole entry): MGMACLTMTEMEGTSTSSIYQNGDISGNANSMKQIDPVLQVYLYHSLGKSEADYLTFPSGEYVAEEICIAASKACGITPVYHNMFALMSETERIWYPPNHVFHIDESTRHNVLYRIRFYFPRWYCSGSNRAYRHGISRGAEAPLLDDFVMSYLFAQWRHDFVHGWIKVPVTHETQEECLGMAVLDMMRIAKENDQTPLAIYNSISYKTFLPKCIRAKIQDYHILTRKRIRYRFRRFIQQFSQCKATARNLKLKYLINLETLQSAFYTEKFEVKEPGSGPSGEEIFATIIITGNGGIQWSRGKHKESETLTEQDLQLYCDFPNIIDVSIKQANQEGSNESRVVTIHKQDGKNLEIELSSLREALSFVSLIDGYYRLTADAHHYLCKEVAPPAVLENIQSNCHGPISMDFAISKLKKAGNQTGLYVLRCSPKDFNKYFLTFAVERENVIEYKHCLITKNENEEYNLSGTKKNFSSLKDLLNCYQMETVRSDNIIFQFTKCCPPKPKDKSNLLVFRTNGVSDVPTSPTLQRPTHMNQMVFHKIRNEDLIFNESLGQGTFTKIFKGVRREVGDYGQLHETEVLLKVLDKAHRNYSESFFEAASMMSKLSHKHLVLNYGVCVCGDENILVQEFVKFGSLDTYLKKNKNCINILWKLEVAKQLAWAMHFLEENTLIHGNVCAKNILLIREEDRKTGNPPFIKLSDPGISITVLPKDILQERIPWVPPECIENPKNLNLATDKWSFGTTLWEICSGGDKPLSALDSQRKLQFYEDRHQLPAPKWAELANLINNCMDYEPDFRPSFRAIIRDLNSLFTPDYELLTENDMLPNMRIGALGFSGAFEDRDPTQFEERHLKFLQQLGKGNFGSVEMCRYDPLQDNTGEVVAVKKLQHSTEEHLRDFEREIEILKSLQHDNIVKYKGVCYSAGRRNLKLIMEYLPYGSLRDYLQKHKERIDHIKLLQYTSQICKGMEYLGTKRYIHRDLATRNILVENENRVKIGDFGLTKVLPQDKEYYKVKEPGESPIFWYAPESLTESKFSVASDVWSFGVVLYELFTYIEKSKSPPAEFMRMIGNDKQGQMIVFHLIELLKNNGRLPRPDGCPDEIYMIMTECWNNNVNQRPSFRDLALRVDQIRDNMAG
T2 sequence (P29597 whole entry): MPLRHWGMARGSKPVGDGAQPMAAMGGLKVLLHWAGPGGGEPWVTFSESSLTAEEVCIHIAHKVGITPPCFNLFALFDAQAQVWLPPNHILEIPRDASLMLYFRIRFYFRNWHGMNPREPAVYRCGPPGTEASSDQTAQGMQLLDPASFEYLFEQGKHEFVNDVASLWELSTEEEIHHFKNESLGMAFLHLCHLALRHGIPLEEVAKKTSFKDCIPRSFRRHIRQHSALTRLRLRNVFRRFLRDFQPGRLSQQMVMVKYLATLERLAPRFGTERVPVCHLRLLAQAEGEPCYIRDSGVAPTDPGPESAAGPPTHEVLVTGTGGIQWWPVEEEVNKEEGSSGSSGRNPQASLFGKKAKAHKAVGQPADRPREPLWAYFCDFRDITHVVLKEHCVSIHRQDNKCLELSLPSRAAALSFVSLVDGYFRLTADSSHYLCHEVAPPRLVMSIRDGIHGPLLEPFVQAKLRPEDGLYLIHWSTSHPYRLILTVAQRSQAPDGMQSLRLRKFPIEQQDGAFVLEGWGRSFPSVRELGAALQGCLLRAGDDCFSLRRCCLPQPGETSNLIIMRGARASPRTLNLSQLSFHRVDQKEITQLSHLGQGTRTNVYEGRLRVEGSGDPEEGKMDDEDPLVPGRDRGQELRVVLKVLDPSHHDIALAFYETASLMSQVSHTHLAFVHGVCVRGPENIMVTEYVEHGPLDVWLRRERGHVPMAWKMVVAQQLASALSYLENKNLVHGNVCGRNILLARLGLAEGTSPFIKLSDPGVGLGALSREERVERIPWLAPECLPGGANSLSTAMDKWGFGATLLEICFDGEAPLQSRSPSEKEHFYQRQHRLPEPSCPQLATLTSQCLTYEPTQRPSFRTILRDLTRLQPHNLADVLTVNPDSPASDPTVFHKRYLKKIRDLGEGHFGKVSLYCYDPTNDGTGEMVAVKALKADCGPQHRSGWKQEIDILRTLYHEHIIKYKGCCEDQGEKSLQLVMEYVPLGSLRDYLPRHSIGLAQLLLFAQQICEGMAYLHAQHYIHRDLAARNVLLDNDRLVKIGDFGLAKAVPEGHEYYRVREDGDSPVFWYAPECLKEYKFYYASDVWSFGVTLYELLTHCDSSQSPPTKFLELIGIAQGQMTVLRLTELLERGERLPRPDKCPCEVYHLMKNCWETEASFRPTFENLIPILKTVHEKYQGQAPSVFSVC
T1 sequence (P23458 whole entry): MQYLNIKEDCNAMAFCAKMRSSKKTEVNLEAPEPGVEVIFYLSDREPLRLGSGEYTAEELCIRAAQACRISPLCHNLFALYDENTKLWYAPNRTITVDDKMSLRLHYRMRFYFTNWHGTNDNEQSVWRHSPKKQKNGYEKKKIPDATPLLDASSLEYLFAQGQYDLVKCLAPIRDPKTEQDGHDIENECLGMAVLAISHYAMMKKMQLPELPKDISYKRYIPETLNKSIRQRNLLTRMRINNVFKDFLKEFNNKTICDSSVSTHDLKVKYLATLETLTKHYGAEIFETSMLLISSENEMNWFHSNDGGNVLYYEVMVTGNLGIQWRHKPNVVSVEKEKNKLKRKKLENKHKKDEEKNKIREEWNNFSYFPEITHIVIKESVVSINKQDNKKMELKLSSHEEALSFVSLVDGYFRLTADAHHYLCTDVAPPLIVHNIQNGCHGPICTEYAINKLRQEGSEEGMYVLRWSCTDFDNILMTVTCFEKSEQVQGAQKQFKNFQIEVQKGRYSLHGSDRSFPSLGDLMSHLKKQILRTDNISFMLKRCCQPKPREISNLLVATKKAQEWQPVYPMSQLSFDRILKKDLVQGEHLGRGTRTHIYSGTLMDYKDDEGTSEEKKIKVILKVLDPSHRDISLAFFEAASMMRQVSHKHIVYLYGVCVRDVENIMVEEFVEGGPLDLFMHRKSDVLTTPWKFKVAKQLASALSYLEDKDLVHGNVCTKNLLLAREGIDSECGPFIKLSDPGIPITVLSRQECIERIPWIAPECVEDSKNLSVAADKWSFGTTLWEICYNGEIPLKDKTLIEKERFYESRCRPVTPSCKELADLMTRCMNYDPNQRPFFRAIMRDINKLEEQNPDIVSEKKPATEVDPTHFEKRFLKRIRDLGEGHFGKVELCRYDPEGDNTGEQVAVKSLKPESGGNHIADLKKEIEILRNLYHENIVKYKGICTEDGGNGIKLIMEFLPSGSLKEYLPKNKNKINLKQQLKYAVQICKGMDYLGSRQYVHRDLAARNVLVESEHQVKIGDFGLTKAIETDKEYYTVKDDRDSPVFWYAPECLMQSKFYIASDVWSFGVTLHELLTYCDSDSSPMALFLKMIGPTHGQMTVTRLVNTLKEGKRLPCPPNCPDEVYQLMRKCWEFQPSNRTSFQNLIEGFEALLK

For `CCCS(=O)(=O)N[C@H]1C[C@@H](Nc2c(-c3nnc(C)s3)cnc3[nH]ccc23)C1` [Example 76, N-((1s,3s)-3-((5-(5-methyl-1,3,4-thiadiazol-2-yl)-1H-pyrrolo[2,3-b]pyridin-4-yl)amino)cyclobutyl)propane-1-sulfonamide], the IC50 at JAK1 is 10 to 100 nM; at Tyk-2, 10 to 100 nM; in assay [1] it was 100 to 1000 nM; on JAK3 (a.a. 781-1124), 10 to 100 nM; in assay [2], 100 to 1000 nM; in assay [3] it was over 1000 nM. The IC50 at JAK2 was 10 to 100 nM.
Consider `Cc1nnc(-c2cnc3[nH]ccc3c2N[C@H]2C[C@@H](NS(=O)(=O)CCCC#N)C2)s1` [Example 77, 3-cyano-N-((1s,3s)-3-((5-(5-methyl-1,3,4-thiadiazol-2-yl)-1H-pyrrolo[2,3-b]pyridin-4-yl)amino)cyclobutyl)propane-1-sulfonamide], for which the 50% inhibitory concentration (IC50) is at most 10 nM at JAK1; 10 to 100 nM on Tyk-2; 100 to 1000 nM in assay [1]; 10 to 100 nM on JAK3 (a.a. 781-1124); 100 to 1000 nM in assay [2]; over 1000 nM in assay [3]. For the same compound, the IC50 at JAK2 is at most 10 nM.
Take `CCOC(=O)c1cnc2[nH]ccc2c1N[C@H]1C[C@@H](NS(=O)(=O)c2cc(C#N)ccn2)C1` [Example 5, ethyl 4-(((1s,3s)-3-((4-cyanopyridine)-2-sulfonamido)cyclobutyl)amino)-1H-pyrrolo[2,3-b]pyridine-5-carboxylate]: the IC50 at JAK1 is at most 10 nM; on Tyk-2, 10 to 100 nM; in assay [1] it was 100 to 1000 nM; on JAK3 (a.a. 781-1124) it was 10 to 100 nM; in assay [2] it was 100 to 1000 nM; in assay [3], over 1000 nM. Besides, the IC50 at JAK2 lay in the range of 10 to 100 nM.
Turning to `N#Cc1cccc(S(=O)(=O)N[C@H]2C[C@@H](Nc3c(-c4nnco4)cnc4[nH]ccc34)C2)c1` [Example 79, N-((1s,3s)-3-((5-(1,3,4-oxadiazol-2-yl)-1H-pyrrolo[2,3-b]pyridin-4-yl)amino)cyclobutyl)-3-cyanobenzenesulfonamide], the IC50 was at most 10 nM at JAK1; 10 to 100 nM on Tyk-2; 100 to 1000 nM in assay [1]; 10 to 100 nM on JAK3 (a.a. 781-1124); 100 to 1000 nM in assay [2]; over 1000 nM in assay [3]. The IC50 on JAK2 is at most 10 nM.
On to `CCCS(=O)(=O)N[C@H]1C[C@@H](Nc2c(-c3nnc(C)o3)cnc3[nH]ccc23)C1` [Example 82, N-((1s,3s)-3-((5-(5-methyl-1,3,4-oxadiazol-2-yl)-1H-pyrrolo[2,3-b]pyridin-4-yl)amino)cyclobutyl)propane-1-sulfonamide], for which the half-inhibitory concentration (IC50) is 10 to 100 nM on JAK1; 100 to 1000 nM at Tyk-2; 100 to 1000 nM in assay [1]; 100 to 1000 nM at JAK3 (a.a. 781-1124); over 1000 nM in assay [2]; over 1000 nM in assay [3]. In addition, the IC50 at JAK2 was 10 to 100 nM.
On to `CCCS(=O)(=O)N[C@H]1C[C@@H](Nc2c(-c3nc(C(=O)NC)cs3)cnc3[nH]ccc23)C1` [Example 72, N-methyl-2-(4-(((1s,3s)-3-(propylsulfonamido)cyclobutyl)amino)-1H-pyrrolo[2,3-b]pyridin-5-yl)thiazole-4-carboxamide], for which the half-maximal inhibitory concentration (IC50) on JAK1 was 10 to 100 nM; on Tyk-2, 100 to 1000 nM; in assay [1], 100 to 1000 nM; on JAK3 (a.a. 781-1124) it was 10 to 100 nM; in assay [2], over 1000 nM; in assay [3], over 1000 nM. In addition, the half-inhibitory concentration (IC50) at JAK2 lay in the range of 10 to 100 nM.
Regarding `Cc1nccc(-c2cnc3[nH]ccc3c2N[C@H]2C[C@@H](NS(=O)(=O)c3cccc(C#N)c3)C2)n1` [Example 84, 3-cyano-N-((1s,3s)-3-((5-(2-methylpyrimidin-4-yl)-1H-pyrrolo[2,3-b]pyridin-4-yl)amino)cyclobutyl)benzenesulfonamide], the IC50 was at most 10 nM on JAK1; at most 10 nM on Tyk-2; at most 100 nM in assay [1]; at most 10 nM at JAK3 (a.a. 781-1124); 100 to 1000 nM in assay [2]; over 1000 nM in assay [3]. Moreover, the IC50 at JAK2 was at most 10 nM.
Take `Cc1nnc(-c2cnc3[nH]ccc3c2N[C@H]2C[C@@H](NS(=O)(=O)c3cccc(C#N)c3)C2)o1` [Example 81, 3-cyano-N-((1s,3s)-3-((5-(5-methyl-1,3,4-oxadiazol-2-yl)-1H-pyrrolo[2,3-b]pyridin-4-yl)amino)cyclobutyl)benzenesulfonamide]: the concentration for half-maximal inhibition (IC50) on JAK1 is at most 10 nM; on Tyk-2, 10 to 100 nM; in assay [1] it was at most 100 nM; at JAK3 (a.a. 781-1124), 10 to 100 nM; in assay [2], 100 to 1000 nM; in assay [3] it was over 1000 nM. Besides, the IC50 on JAK2 is at most 10 nM.
On to `Cc1nccc(-c2cnc3[nH]ccc3c2N[C@H]2C[C@@H](NS(=O)(=O)c3cc(C#N)ccn3)C2)n1` [Example 85, 4-cyano-N-((1s,3s)-3-((5-(2-methylpyrimidin-4-yl)-1H-pyrrolo[2,3-b]pyridin-4-yl)amino)cyclobutyl)pyridine-2-sulfonamide], for which the IC50 is at most 10 nM on JAK1; 10 to 100 nM at Tyk-2; 100 to 1000 nM in assay [1]; 10 to 100 nM on JAK3 (a.a. 781-1124); 100 to 1000 nM in assay [2]; over 1000 nM in assay [3]. In addition, the IC50 on JAK2 is at most 10 nM.

(Values after US20220235043A1, “SUBSTITUTED SULFONAMIDE PYRROLOPYRIDINES AS JAK INHIBITORS” (ACLARIS THERAPEUTICS, INC., priority 2019, published 2022).)
